# Literature values in patent publication US20110311589A1 (priority 2008, published 2011).
# Tested on: helminthiasis
# Settings: in vivo
structure (smiles),measurement,value
c1ccc([C@H]2CN3CCSC3=N2)cc1 [Levamisole],Dosage level at which particularly effective as anthelmintic,approximately 7.5 mg per kg of animal body weight
